Experimental data taken from patent US20190248834A1, “ENDOMORPHIN-2, TETRAPEPTIDE DERIVATIVES THEREOF, AND USES THEREOF” (priority 2016, published 2019).
*: point of attachment. NHPhenethyl = c1ccc(CCN*)cc1; NHBn = c1ccc(CN*)cc1; Propionyl = CCC(=O)*; NHiPr = CC(C)N*; NHNH2 = NN*; NHOH = ON*

What was measured:
Format in all cases: in vivo, human
[1] = tested on: periostitis of right upper tibia, osteoarthritis of left knee, left hip joint pain, lower back pain; experiment: Example 87: pain relief at multiple sites in one subject, topical; settings: for degree of analgesic effect / duration of pain relief / pain relief at the treated sites / time to pain relief: 0.8% (w/v) in WEP442, topical to the sites of pain
From the text: A caregiver subject, presented with (a) painful periostitis of the right upper tibia for about 3 months, (b) painful early osteoarthritis of the left knee for about 1 year, (c) painful left hip joint of about 6 months, and (d) lower back pain near the end of the work day for about 2 years.
Over the course of 16 days, this subject evaluated the analgesic efficacy of eight (8) endomorphin-2 tetrapeptide derivatives in WEP442 at a concentration of 0.8% (w/v) applied topically to the sites of pain.
The lower back pain returned toward the end of the following work day.
Relief of lower back pain lasted for 20-24 hours (4+ effect). […]
For the above same subject, the composition containing 0.8% (w/v) of N-Ac-Tyr-Pro-Phe-Phe-NHCH(CH3)2 (SEQ ID NO: 27) in WEP442 was topically applied to the right upper tibia, left knee and left hip.
For the above same subject, the composition containing 0.8% (w/v) of N-Fo-Tyr-Pro-Phe-Phe-NH2 (SEQ ID NO: 104) in WEP442 was topically applied to 3 sites. Relief of pain was variable. […] Relief of pain in the right upper tibia was complete in about 4 minutes, lasting for 12 hours.
For the above same subject, the composition containing 0.8% (w/v) of N-Bz-Tyr-Pro-Phe-Phe-NH2 (SEQ ID NO: 84) in WEP442 provided relief of pain within 2-4 minutes. On the left hip, the relief was complete, lasting for about 12 hours (4+ effect). On the left knee, relief was incomplete, about 50%, lasting for only about 3 hours (2+ effect). On the right upper tibia, relief was complete and lasted for about 12 hours (4+ effect).

[2] = tested on: severe osteoarthritis of both knees; experiment: Example 88: analgesic efficacy of eight derivatives on severe osteoarthritis, topical
Experimental: A subject with severe osteoarthritis of both knees for a duration of about 7 years evaluated numerous tetrapeptide derivatives over the past years. […] Over the course of 3 weeks, this subject evaluated the analgesic efficacy of eight (8) endomorphin-2 tetrapeptide derivatives in WEP442 at a concentration of 1% (w/v) applied topically to the knees.
Reapplication at the end of that time again provided the same effect. Application at bedtime provided relief of pain for 7 hours. The same results were achieved the next day (3+ to 4+ effect).
A second application, about 15 minutes later, provided somewhat more relief (2+ effect).
Application at 9:30 p.m. provided relief until 5:30 a.m., and similar results were achieved the next day (3+ to 4+ effect).
No modification of pain in the right knee, which had received application of vehicle WEP442 as a control, was detected. Application of the composition containing the tetrapeptide derivative to the right knee about 15 minutes later provided prompt relief of pain. Pain relief in both knees lasted for about 5 hours (3+ to 4+ effect).
Relief lasted for about 3 hours. Re-application at that time provided the same degree of pain relief in about 5 minutes, which lasted about another 3 hours (2+ effect).
For the above same subject, the composition containing 1% (w/v) of N-Fo-Tyr-Pro-Phe-Phe-NH2 (SEQ ID NO: 104) in WEP442 was applied to the left knee, and the composition containing 1% (w/v) of N-Bz-Tyr-Pro-Phe-Phe-NH2 (SEQ ID NO: 84) in WEP442 was applied to the right knee moments later. Relief of pain in both knees seemed equivalent, was detectable in 5-7 minutes and lasted for about 4 hours. This procedure was repeated the next day with about the same results. The degree of pain relief from both solutions was rated as 3+ effect.

[3] = tested on: psoriatic arthritis of interphalangeal joints of the fingers; experiment: Example 93: multiple derivatives evaluated for relief of pain associated with psoriatic arthritis, topical; settings: 0.8% (w/v) in WEP442, topical to both hands
From the text: A subject with extensive plaque psoriasis and psoriatic arthritis of interphalangeal joints of the fingers evaluated multiple tetrapeptide derivatives for comparative effectiveness on relief of their painful fingers. Over the course of 4 weeks, this subject evaluated the analgesic efficacy of ten (10) endomorphin-2 tetrapeptide derivatives in WEP442 at a concentration of 0.8% (w/v) applied topically to both hands, which included all fingers.

[4] = 1% (w/v) in WEP442, topical to the knees

Row | Substance | degree of analgesic effect [1] | duration of pain relief [1] | pain relief at the treated sites [1] | time to pain relief [1] [min] | analgesic effect grade ([2]; 1% (w/v) in WEP442, second application about 15 minutes later) | analgesic effect grade [2, 4] | pain relief [2, 4] | duration of pain relief [3] | pain relief [3] | time to pain relief [3] [min] | degree of analgesic effectiveness [3] | duration of pain relief ([2]; 1% (w/v) in WEP442, application at bedtime) [h] | duration of pain relief [2, 4] | time to pain relief [2, 4] [min] | duration of pain relief, right upper tibia ([1]; 0.8% (w/v) in WEP442, periostitis of right upper tibia) [h]
1 | N-Ac-Tyr-Pro-Phe-Phe-NHCH2C6H5 (Ac-YPFF-NHBn; SMILES CC(=O)N[C@@H](Cc1ccc(O)cc1)C(=O)N1CCC[C@H]1C(=O)N[C@@H](Cc1ccccc1)C(=O)N[C@@H](Cc1ccccc1)C(=O)NCc1ccccc1) | 4+ | ≥ 5 h | complete relief of pain | 3 to 4 | 2+ (2+ (50%): substantial but incomplete relief of pain for less than 4 hours) | 1+ (1+ (25%): partial relief of pain for less than 4 hours) | little relief of pain | about 6 hours | substantial relief of pain | 3 to 5 | – | – | – | – | –
2 | N-Ac-Tyr-Pro-Phe-Phe-NHCH2CH2C6H5 (Ac-YPFF-NHPhenethyl; SMILES CC(=O)N[C@@H](Cc1ccc(O)cc1)C(=O)N1CCC[C@H]1C(=O)N[C@@H](Cc1ccccc1)C(=O)N[C@@H](Cc1ccccc1)C(=O)NCCc1ccccc1) | 0 (zero represented no relief) | – | no detectable analgesic effect | – | – | 0 | no detectable analgesic effect | – | no detectable analgesic effect | – | 0 (zero represented no relief) | – | – | – | –
3 | N-Ac-Tyr-Pro-Phe-Phe-NHCH2CH3 (Ac-YPFF-NHEt; SMILES CCNC(=O)[C@H](Cc1ccccc1)NC(=O)[C@H](Cc1ccccc1)NC(=O)[C@@H]1CCCN1C(=O)[C@H](Cc1ccc(O)cc1)NC(C)=O) | 4+ | ≥ 5 h | complete relief of pain | 3 to 4 | – | – | very good relief of pain | about 7 hours | complete relief of pain | 1 to 2 | 4+ | 7 | 3 to 4 h | 3 to 5 | –
4 | N-Ac-Tyr-Pro-Phe-Phe-NHCH(CH3)2 (Ac-YPFF-NHiPr; SMILES CC(=O)N[C@@H](Cc1ccc(O)cc1)C(=O)N1CCC[C@H]1C(=O)N[C@@H](Cc1ccccc1)C(=O)N[C@@H](Cc1ccccc1)C(=O)NC(C)C) | 4+ | at least 4 hours | Complete relief of pain | 3 to 4 | – | 2+ (2+ (50%): substantial but incomplete relief of pain for less than 4 hours) | moderate relief of pain | 2 to 3 h | only minimal relief of pain | 5 to 6 | – | – | about 3 hours | ≤ 15 | 7
5 | N-Pa-Tyr-Pro-Phe-Phe-NHNH2 (Propionyl-YPFF-NHNH2; SMILES CCC(=O)N[C@@H](Cc1ccc(O)cc1)C(=O)N1CCC[C@H]1C(=O)N[C@@H](Cc1ccccc1)C(=O)N[C@@H](Cc1ccccc1)C(=O)NN) | – | – | – | – | – | – | – | about 7 hours | complete relief of pain | 2 to 3 | 4+ | – | – | – | –
6 | N-Pa-Tyr-Pro-Phe-Phe-NHOH (Propionyl-YPFF-{NHOH}; SMILES CCC(=O)N[C@@H](Cc1ccc(O)cc1)C(=O)N1CCC[C@H]1C(=O)N[C@@H](Cc1ccccc1)C(=O)N[C@@H](Cc1ccccc1)C(=O)NO) | – | – | – | – | – | – | – | about 7 hours | complete relief of pain | 2 to 3 | 4+ | – | – | – | –
